Experimental data reported in patent US10130676B2, “Therapeutic peptides for cerebrovascular diseases” (Prime Bio-Drug Development Limited, priority 2015, dated 2018).
Ends that are not written are not given here.

How the values were obtained:
[1] = In vivo distribution of Cy5.5-conjugated peptides after i.v. injection (IVIS optical imaging); set-up: species or system C57B/L6 mice; conditions: for fluorescent intensity detected in the brain: 15 and 30 minutes after injection (FIG. 12); for fluorescent intensity detected in the spinal cord: 30 and 60 minutes after injection (FIG. 13)
Source text: The C57B/L6 mice (6˜8 week-old, female) were purchased from National Laboratory Animal Center, Taiwan. For optical imaging, animals were anesthetized by 2% isoflurane gas mixed with oxygen and intravenous injection (i.v.) of Cy5.5-conjugated peptide 1 or Cy5.5-conjugated peptide 5 (35 nmole/per mouse). After administration the mice were placed prone or supine in a dark box and a photographic image was first acquired at low light (exposure time: 5 seconds). At indicated time points after administration of probes, fluorescent signals were obtained using a CCD camera thermoelectrically cooled to −70° C. (Xenogen—IVIS® Spectrum Imaging System, Xenogen Technology). The photon integration period was 1-2 sec.

PC12 cells [2] = test: PC12 cell survival upon exposure to L-glutamic acid (MTT); assay type: cell-based, rat; conditions: 10 ug/ml for each peptide; 1 mM L-glutamic acid
Experimental: PC12 cells were obtained from the Chinese Academy of Medical Sciences, Beijing, China. To examine cell survival upon exposure to L-glutamic acid, PC12 cells were grown to confluence in 96 well plate in serum-free RPMI-1640. […] After 15-min incubation, medium was changed to serum-free RPMI-1640. After 24 h incubation, 100 μL MTT (final concentration 0.5 mg/ml) was added for additional 4 h incubation, and the cell survival was subsequently assessed by absorbance at 540 nm under a Fluostar microplate reader (BMG Germany).
(§1) Differences were considered significant at P<0.05.

PC12 cells [3] = test: PC12 cell survival upon exposure to H2O2 (MTT); assay type: cell-based, rat; conditions: 10 ug/ml for each peptide; 200 μM H2O2, 24 h
Experimental: To examine cell survival upon exposure to H2O2, PC12 cells were grown to confluence in 96 well plate and the medium was changed to serum-free medium containing 200 μM H2O2 (final volume 100 μl) for 24 h. […] After 24 h incubation, 100 μL MTT (final concentration 0.5 mg/ml) was added for additional 4 h incubation, and the cell survival was subsequently assessed by absorbance at 540 nm under a Fluostar microplate reader (BMG, Germany).
as §1

PC12 cells [4] = test: PC12 cell survival under hypoglycemic, hypoxic or hypoglycemic-hypoxic conditions (MTT); conditions: for protective effect on PC12 from cell death under hypoglycemic and hypoxic conditions: 10 ug/ml for each peptide, 24 h; for protective effect against cell death induced by hypoxia / protective effects against cytotoxicity induced by hypoxia or by (hypoglycemia+hypoglycemia): peptide used individually; for protective effects against cytotoxicity induced by hypoxia or by (hypoglycemia+hypoglycemia): conditions as printed
Experimental: PC12 cells were propagated and cultured as described above. For hypoglycemic condition, 125 μM Cobaltous Chloride (CoCl2, Sigma, USA) was added into the culture media when PC12 cells were in monolayer for further 24 h incubation as described. For induction of hypoglycemia, culture media was changed to glucose-free Eagle's medium when PC12 grew to monolayer for additional 24 h incubation. For hypoglycemic and hypoxic conditions, PC12 cells were cultured in glucose-free Eagle's media with addition of 125 μM CoCl2. After 24 h, cells were harvested and subject to MTT assay.
Data were expressed as mean±standard error (SE) and multiple comparisons were evaluated by the analysis of variance and Neuman-Keuls test. Differences were considered significant at P<0.05. Neurological deficit data were evaluated by the nonparametric Mann-Whitney test.

[5] = Circular dichroism (CD) of the peptide in PBS; assay type: physicochemical; conditions: 50 μM in PBS
Experimental: (§2) Peptide-5 was dissolved in series of solution with different pH value and stood for 3 days. Adequate amount of each resulting solution was analyzed by HPLC (Agilent 1100 series) using a Nucleodur Pyramid C18 column (250 mm×4.6 mm, 5 μm) and gradient elution (0 min: 0.1% TFA in H2O; 10 min: 0.1% TFA in MeOH; 15 min: 0.1% TFA in MeOH) with 0.2 mL/min flow. The signals were monitored by UV detector at 220 nm wavelength. The sample collected in the stability test was also analyzed by MALDI-TOF Mass (Bruker Daltonics, Autoflex III) with 2,5-dihydroxybenzoic acid (DHB) as matrix. Furthermore, the portion respond to the signal at 7.8 min were collected and subject to MALDI-MS analysis. Peptide-5 was also prepared 50 μM in PBS and recorded from circular dichroism (Jasco, J-810).

[6] = Stability test in solutions of different pH value (HPLC, MALDI-TOF); assay type: physicochemical; conditions: pH 2.0 to 8.5, 3 days, HPLC UV 220 nm
Experimental: as §2

Substance	fluorescent intensity detected in the brain [1]	fluorescent intensity detected in the spinal cord [1]	protective effect on L-glutamic-acid-treated PC12 cells (PC12 cells [2])	protective effect on H2O2-treated neural cells (cell survival) (PC12 cells [3])	protective effect on PC12 from cell death under hypoglycemic and hypoxic conditions (PC12 cells [4])	protective effect against cell death induced by hypoxia (PC12 cells [4])	protective effects against cytotoxicity induced by hypoxia or by (hypoglycemia+hypoglycemia) (PC12 cells [4])	stability by CD (circular dichroism) [5]	stability in solution with various pH value [6]
DEAQETAVSSH-OH [Peptide 1]	high fluorescent intensity	high fluorescent intensity	a degree of protective effect	a degree of protective effect	had the protective effect as well	some protective effect	no protective effects	–	–
DEAQETAVSSHEQD-OH [Peptide 5]	high fluorescent intensity	high fluorescent intensity	a degree of protective effect	a degree of protective effect	had the protective effect as well	some protective effect	no protective effects	extremely stable	stable, even in a very acidic environment
